Reference: US11427548B2 (Arvinas Operations, Inc., priority 2015, dated 2022)
“Also recorded” adds a separate entry of the source. Like-named read-outs stand apart in the source and are kept apart here.

Columns and labels:
[1] = PROTAC subcutaneous pharmacokinetics in CD-1 mice; type: in vivo; conditions: male, plasma, CD-1 Mouse, 10 mg/kg SC dose, vehicle ESD-1
Description: 9. PROTAC Prodrug Oral Pharmacokinetics and PROTAC Subcutaneous Phamacokinetics.
Representative Pharmacokinetic Procedure
Male CD-1 mice (6-8 weeks old, weighing 20-30 g, 3 per study) with free access to food and water were administered with the test article at 10 mg/kg either by oral gavage or sub-cutaneous injection in the formulation specified in tables 20 and 21, at 10 mL/kg.
Approximately 0.04 mL blood samples were collected from the dorsal metatarsal vein serially at 0.25, 0.5, 1, 2, 4, 8 and 24 h timepoints; heparin was used as the anticoagulant. The samples were centrifuged at 4000 g for 5 min at 4° C. then stored at −75° C. prior to analysis.
The plasma samples were analysed via an LC/MS/MS method quantitating for unchanged, administered test article, and/or a derivative species as appropriate. WinNonlin (Phoenix™) was used for the pharmacokinetic calculations and modeling, to generate parameters such as Cmax and AUC.

[2] = test system: LNCaP cells transduced with AR F876L construct; assay: Anti-proliferation in LNCaP F876L (CellTiterGlo); type: cell-based; conditions: Charcoal Stripped Serum media, indicated doses for 7 days
Description: FIG. 3. Anti-proliferation in LNCaP F876L. […] LNCaP cells transduced with AR F876L construct were cultured in Charcoal Stripped Serum containing media.
4. Anti-Proliferation in LNCaP F876L.
LNCaP cells transduced with AR F876L construct were cultured in Charcoal Stripped Serum containing media. […] CellTiterGlo reagent (Promega) was employed to assess proliferation.

Androgen Receptor [3] = molecular target: T1, Androgen Receptor (Homo sapiens, UniProt P10275+P40337, T878A); assay: Androgen Receptor ELISA assay (PathScan AR ELISA) in LNCaP cells: AR degradation, Dmax and DC50; type: cell-based
T1 construct: Compounds have been evaluated in this assay in LNCaP and/or VCaP cells utilizing similar protocols; endogenous in cells; host or cells: LNCaP cells
T1 sequence (P10275 whole entry T878A): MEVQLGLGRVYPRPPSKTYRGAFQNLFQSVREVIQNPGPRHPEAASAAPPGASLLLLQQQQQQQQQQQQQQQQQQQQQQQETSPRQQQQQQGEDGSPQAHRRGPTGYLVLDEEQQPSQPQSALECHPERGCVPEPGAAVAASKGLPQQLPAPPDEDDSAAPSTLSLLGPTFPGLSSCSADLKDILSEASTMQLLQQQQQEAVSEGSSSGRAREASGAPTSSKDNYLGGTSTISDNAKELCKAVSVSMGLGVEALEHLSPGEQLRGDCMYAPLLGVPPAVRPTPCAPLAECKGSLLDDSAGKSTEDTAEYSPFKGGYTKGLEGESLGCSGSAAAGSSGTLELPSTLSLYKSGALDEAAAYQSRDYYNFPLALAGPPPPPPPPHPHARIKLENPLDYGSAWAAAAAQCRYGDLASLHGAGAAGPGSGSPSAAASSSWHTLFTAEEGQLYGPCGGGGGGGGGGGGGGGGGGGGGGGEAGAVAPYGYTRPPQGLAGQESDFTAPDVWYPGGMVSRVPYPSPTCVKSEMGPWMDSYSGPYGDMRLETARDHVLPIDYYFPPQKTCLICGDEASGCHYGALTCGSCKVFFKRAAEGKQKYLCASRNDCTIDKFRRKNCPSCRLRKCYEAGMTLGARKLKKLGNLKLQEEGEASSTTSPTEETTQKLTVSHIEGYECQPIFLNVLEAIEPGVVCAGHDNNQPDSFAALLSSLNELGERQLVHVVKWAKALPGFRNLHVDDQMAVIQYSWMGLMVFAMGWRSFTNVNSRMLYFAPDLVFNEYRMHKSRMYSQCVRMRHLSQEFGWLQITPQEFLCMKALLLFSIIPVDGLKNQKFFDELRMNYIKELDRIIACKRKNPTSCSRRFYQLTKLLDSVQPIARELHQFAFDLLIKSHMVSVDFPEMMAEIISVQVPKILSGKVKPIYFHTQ
T1 sequence (P40337 whole entry): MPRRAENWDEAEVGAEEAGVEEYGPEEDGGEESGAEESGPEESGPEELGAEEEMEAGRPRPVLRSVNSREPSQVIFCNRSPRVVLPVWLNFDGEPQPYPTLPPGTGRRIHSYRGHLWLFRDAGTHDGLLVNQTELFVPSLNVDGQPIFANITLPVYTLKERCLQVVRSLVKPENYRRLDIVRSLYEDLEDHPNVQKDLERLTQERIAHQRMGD
T1 sequence (Q15369 whole entry partner): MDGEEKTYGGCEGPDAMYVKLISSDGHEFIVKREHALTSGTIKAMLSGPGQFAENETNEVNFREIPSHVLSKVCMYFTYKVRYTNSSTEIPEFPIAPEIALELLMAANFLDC
T1 sequence (Q15370 whole entry partner): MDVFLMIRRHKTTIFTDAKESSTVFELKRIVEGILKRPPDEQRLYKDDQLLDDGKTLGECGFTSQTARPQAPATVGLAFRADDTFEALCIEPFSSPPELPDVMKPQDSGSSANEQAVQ

Androgen Receptor [4] = molecular target: T2, Androgen Receptor (Homo sapiens, UniProt P10275); assay: Androgen Receptor ELISA assay (PathScan AR ELISA) in VCaP cells: AR degradation, Dmax and DC50; type: cell-based; conditions: for Dmax: VCaP, read-out: VCaP Dmax (%); for DC50: read-out: VCaP DC50, concentration that caused 50% Androgen Receptor degradation
T2 construct: endogenous in cells; host or cells: VCaP cells
T2 sequence (P10275 1-920): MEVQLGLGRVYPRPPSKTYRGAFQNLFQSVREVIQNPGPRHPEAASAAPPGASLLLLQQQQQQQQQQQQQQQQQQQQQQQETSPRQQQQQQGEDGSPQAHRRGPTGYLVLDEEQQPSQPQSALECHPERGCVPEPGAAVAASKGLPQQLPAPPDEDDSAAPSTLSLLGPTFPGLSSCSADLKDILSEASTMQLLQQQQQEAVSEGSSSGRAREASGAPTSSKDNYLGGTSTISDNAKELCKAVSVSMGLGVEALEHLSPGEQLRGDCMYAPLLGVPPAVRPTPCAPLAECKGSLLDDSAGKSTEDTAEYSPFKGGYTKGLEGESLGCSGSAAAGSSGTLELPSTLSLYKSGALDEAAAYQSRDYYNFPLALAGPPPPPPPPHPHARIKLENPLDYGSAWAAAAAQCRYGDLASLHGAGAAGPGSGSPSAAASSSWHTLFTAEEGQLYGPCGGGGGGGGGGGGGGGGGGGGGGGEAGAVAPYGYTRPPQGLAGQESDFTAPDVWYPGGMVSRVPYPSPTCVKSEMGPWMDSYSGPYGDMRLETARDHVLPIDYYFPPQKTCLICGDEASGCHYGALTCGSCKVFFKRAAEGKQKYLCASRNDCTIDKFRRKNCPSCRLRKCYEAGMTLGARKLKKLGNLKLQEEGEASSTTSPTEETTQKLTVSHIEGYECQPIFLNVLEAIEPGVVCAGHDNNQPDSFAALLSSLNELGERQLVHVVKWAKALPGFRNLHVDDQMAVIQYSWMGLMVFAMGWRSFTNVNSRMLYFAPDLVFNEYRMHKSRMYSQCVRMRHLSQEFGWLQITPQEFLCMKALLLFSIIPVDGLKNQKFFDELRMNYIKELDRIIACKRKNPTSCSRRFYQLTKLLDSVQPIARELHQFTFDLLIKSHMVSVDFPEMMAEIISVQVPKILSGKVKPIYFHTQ
How it was run: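 VCaP cells in phenol red-free RPMI with 5% charcoal-stripped FBS were grown at least 3 days, then given compound as 7 half-log doses in 0.1% DMSO with 0.1 nM R1881 for 24 h. Lysates went into a sandwich AR ELISA with TMB read at 450 nm.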

AR = molecular target: T3, AR (Homo sapiens, UniProt P10275+P40337, T878A); assay: AR degradation of PROTAC is E3 ligase dependent (LNCaP cells); type: cell-based
T3 construct: Compounds have been evaluated in this assay in LNCaP and/or VCaP cells utilizing similar protocols; endogenous in cells; host or cells: LNCaP cells
T3 sequence (P10275 whole entry T878A): as the sequence (P10275 whole entry T878A) above
T3 sequence (P40337 whole entry): as the sequence (P40337 whole entry) above
T3 sequence (Q15369 whole entry partner): as the sequence (Q15369 whole entry partner) above
T3 sequence (Q15370 whole entry partner): as the sequence (Q15370 whole entry partner) above
Excerpt: FIG. 7A and FIG. 7B. AR degradation of PROTAC is E3 ligase dependent.
8. AR Degradation of PROTAC is E3 Ligase Dependent.

VCaP xenograft = assay: Tumor growth inhibition in VCaP xenograft model; type: in vivo; conditions: VCaP cells s.c. in castrated CB17 scid mice; enzalutamide PO, QD, 30 mpk; Example 163 IP, QD, 30, 10 and 3 mpk
Excerpt: FIG. 6. Tumor growth inhibition in VCaP xenograft model. VCaP cells were implanted into CB17 scid mice subcutaneously. Once the tumors were palpable, the mice were castrated, leading to temporary tumor stasis.
7. Tumor Growth Inhibition in VCaP Xenograft Model.
VCaP cells were implanted into CB17 scid mice subcutaneously. Once the tumors were palpable, the mice were castrated, leading to temporary tumor stasis.

C57B6 mouse model = assay: Prostate involution in C57B6 mouse model; type: in vivo; conditions: 12-week old male C57BL/6 mice; IP, QD, 1 and 3 mpk; 10 days
Excerpt: FIG. 5. Prostate involution in C57B6 mouse model.
6. Prostate Involution in C57B6 Mouse Model.

VCaP cells = assay: VCaP cell proliferation assay (Cell Titer Glo), GI50; type: cell-based; conditions: Homo sapiens; VCaP cells, 0.1 nM R1881; Table 37; read-out: GI50, Inhibition of VCaP Proliferation
How it was run: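 VCaP cells at 7,500/well were androgen-depleted for at least 3 days in phenol red-free RPMI with 5% charcoal-stripped FBS, then dosed with PROTACs plus 0.1 nM R1881. Growth was read by CellTiter Glo luminescence against a baseline taken on the day of dosing, giving GI50.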

SMILES	AUC(0-t) ([1]; read-out: Plasma Exposure AUC0-24)	Cmax ([1]; read-out: Plasma Exposure Cmax)	proliferation / agonist activity in LNCaP F876L cells [2]	DC50 (Androgen Receptor [3]; concentration that caused 50% Androgen Receptor degradation)	Dmax (Androgen Receptor [3]; highest percentage of Androgen Receptor degradation observed)	Dmax (Androgen Receptor [4])	DC50 (Androgen Receptor [4]; VCaP cells)	AR degradation activity in the presence of VHL E3 ligase ligand compound B (AR; 24 hours, 10 uM compound B)	degradation of AR (AR; PROTAC versus inactive epimer analog unable to bind VHL E3 ligase)	Tumor growth inhibition (VCaP xenograft)	prostate weights (prostate involution) (C57B6 mouse model)	Dmax (Androgen Receptor [4]; highest percentage of Androgen Receptor degradation observed, VCaP cells (Table 32))	DC50 (Androgen Receptor [4]; VCaP cells (Table 32))	GI50 (VCaP cells)
Cc1ncsc1-c1ccc(CNC(=O)[C@@H]2C[C@@H](O)CN2C(=O)[C@@H](NC(=O)COCCCOCCCCCOc2ccc(N3C(=S)N(c4ccc(C#N)c(C(F)(F)F)c4)C(=O)C3(C)C)cc2)C(C)(C)C)cc1 [Example 1, (2S,4R)-1-((S)-2-(2-(3-(5-(4-(3-(4-cyano-3-(trifluoromethyl)phenyl)-5,5-dimethyl-4-oxo-2-thioxoimidazolidin-1-yl)phenoxy)pentyloxy)propoxy)acetamido)-3,3-dimethylbutanoyl)-4-hydroxy-N-(4-(4-methylthiazol-5-yl)benzyl)pyrrolidine-2-carboxamide]	15600 ng·h/mL	1150 ng/mL	did not exhibit agonist activity; also recorded: Anti-proliferation in LNCaP F876L cells observed	< 50 nM	> 71%	51 to 70%	< 50 nM	greatly diminishes the AR degradation activity	significant degradation of AR	–	–	–	–	–
Cc1ncsc1-c1ccc(CNC(=O)[C@@H]2C[C@@H](O)CN2C(=O)[C@@H](NC(=O)COCCCCOc2ccc(C(=O)N[C@H]3C(C)(C)[C@H](Oc4ccc(C#N)c(Cl)c4)C3(C)C)cc2)C(C)(C)C)cc1 [Example 163, (2S,4R)-1-[(2S)-3,3-dimethyl-2-{2-[4-(4-{[trans-3-(3-chloro-4-cyanophenoxy)-2,2,4,4-tetramethylcyclobutyl]carbamoyl}phenoxy)butoxy]acetamido}butanoyl]-4-hydroxy-N-{[4-(4-methyl-1,3-thiazol-5-yl)phenyl]methyl}pyrrolidine-2-carboxamide]	–	–	–	–	–	–	–	–	–	Tumor growth inhibition was observed	significant reduction in prostate weights; also recorded: significant prostate involution	> 71%	< 50 nM	≤ 50 nM
